In patent US20260365670A1, “EGFR INHIBITORS AND USES THEREOF” (DIZAL (JIANGSU) PHARMACEUTICAL CO., LTD., priority 2022, published 2026):
Read-outs that look alike come from different tables or passages of the source.

Experiments:
[1] = target: T1, EGFR wild type (Homo sapiens, UniProt P00533); assay: Inhibition of EGFR wild type biochemical enzymatic activity (HTRF); conditions: 1 mM ATP
T1 construct: purchased Carna Bio
In short: (§1)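 Phosphorylation of TK Substrate-biotin (1 μM) was measured at 1 mM ATP over a 1 h room-temperature incubation with serially varied compound. Detection was by HTRF ratio and analysis by 4PL fit to IC50.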

[2] = target: T2, EGFR (d746-750 C797S) (Homo sapiens, UniProt P00533, C797S/DEL746-750); assay: Inhibition of EGFR (d746-750 C797S) biochemical enzymatic activity (HTRF); conditions: 1 mM ATP
T2 construct: purchased signalchem
T2 sequence (P00533 with tags, fused parts or gaps DEL746-750/C797S limits assumed): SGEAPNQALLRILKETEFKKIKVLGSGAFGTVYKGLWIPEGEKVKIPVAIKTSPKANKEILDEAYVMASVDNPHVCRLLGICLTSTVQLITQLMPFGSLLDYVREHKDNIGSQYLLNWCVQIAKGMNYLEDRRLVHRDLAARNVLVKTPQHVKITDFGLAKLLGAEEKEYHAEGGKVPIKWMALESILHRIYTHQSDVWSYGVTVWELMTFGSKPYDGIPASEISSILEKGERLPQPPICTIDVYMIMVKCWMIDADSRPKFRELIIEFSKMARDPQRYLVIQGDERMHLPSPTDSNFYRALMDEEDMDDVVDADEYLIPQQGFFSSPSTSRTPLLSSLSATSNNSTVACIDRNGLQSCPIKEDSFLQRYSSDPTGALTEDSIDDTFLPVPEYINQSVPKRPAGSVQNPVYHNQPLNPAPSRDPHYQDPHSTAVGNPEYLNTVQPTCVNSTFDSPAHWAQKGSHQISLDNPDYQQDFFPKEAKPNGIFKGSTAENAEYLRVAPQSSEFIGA
In short: as §1

[3] = target: T3, EGFR[T790M/C797S/L858R] (Homo sapiens, UniProt P00533, C797S/L858R/T790M); assay: Inhibition of EGFR[T790M/C797S/L858R] biochemical enzymatic activity (HTRF); conditions: 1 mM ATP
T3 construct: purchased Carna Bio
In short: as §1

[4] = target: T4, EGFR Exon19Del/T790M (Homo sapiens, UniProt P00533, DEL746-750/T790M); assay: Inhibition of EGFR Exon19Del/T790M biochemical enzymatic activity (HTRF); conditions: 1 mM ATP
T4 construct: purchased Carna Bio
T4 sequence (P00533 with tags, fused parts or gaps DEL746-750/T790M limits assumed): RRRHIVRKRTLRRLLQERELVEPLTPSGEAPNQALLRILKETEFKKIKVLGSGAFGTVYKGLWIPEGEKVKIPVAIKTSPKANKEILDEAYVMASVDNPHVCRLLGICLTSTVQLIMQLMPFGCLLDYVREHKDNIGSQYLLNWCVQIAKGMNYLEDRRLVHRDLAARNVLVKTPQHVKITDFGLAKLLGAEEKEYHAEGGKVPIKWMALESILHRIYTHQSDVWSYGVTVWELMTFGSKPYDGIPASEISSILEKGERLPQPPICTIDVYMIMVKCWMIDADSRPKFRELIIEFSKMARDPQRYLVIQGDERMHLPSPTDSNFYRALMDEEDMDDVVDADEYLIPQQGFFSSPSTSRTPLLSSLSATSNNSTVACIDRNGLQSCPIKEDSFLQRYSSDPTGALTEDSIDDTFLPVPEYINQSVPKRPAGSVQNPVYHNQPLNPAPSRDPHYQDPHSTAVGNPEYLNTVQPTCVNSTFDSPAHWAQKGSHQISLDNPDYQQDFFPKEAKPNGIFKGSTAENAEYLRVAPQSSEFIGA
In short: as §1

[5] = tested on: PC-9; assay: Cell proliferation assay, PC-9 cells (CellTiter-Glo, 72 hours); assay type: cell-based; conditions: PC9 cells
In short: (§2)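 Luminescent viable-cell counts were taken on a day 0 plate at dosing and again at endpoint. Proliferation was calculated as (sample − G0)/(DMSO − G0). Seeding was 5000 Ba/F3 or 500 PC-9 cells per well in RPMI1640, followed by overnight attachment and serial compound dilutions. The GI50 was fitted.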

[6] = target: T5, EGFR (C797S L858R) (Homo sapiens, UniProt P00533, C797S/L858R); assay: Inhibition of EGFR (C797S L858R) biochemical enzymatic activity (HTRF); conditions: 1 mM ATP
T5 construct: purchased signalchem
T5 sequence (P00533 25-1210 C797S/L858R): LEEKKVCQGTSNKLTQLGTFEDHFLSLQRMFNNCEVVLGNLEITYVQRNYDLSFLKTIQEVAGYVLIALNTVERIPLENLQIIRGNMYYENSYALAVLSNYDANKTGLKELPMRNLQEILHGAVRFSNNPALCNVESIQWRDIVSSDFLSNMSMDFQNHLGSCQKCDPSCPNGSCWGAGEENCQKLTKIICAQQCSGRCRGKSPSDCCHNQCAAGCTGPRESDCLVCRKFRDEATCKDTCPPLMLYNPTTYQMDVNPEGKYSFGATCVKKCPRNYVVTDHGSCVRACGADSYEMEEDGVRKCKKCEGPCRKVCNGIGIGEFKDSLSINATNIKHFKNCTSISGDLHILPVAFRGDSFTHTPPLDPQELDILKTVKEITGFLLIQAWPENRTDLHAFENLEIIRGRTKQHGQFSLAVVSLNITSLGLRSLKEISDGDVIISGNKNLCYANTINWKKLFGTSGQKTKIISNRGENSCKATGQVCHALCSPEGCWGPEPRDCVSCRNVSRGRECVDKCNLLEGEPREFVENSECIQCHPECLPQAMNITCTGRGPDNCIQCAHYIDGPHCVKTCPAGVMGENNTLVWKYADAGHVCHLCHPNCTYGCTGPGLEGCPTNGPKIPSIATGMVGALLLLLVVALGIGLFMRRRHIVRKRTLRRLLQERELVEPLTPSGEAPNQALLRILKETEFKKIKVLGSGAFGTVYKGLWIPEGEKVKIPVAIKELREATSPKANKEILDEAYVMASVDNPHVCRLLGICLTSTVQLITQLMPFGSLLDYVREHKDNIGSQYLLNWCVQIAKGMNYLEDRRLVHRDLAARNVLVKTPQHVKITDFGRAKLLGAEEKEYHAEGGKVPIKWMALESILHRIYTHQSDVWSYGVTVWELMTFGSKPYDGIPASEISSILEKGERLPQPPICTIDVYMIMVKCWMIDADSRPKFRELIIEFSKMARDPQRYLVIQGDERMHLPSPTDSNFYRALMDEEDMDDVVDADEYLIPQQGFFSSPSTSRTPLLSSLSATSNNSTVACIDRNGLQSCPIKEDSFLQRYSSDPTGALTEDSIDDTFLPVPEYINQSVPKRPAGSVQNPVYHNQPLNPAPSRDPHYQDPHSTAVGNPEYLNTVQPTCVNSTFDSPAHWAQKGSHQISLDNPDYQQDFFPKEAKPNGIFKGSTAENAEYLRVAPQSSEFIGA
In short: as §1

[7] = target: T6, EGFR Exon19Del (Homo sapiens, UniProt P00533, DEL746-750); assay: Inhibition of EGFR Exon19Del biochemical enzymatic activity (HTRF); conditions: read-out: IC50 @Del19
T6 construct: purchased Carna Bio
T6 sequence (P00533 with tags, fused parts or gaps DEL746-750 limits assumed): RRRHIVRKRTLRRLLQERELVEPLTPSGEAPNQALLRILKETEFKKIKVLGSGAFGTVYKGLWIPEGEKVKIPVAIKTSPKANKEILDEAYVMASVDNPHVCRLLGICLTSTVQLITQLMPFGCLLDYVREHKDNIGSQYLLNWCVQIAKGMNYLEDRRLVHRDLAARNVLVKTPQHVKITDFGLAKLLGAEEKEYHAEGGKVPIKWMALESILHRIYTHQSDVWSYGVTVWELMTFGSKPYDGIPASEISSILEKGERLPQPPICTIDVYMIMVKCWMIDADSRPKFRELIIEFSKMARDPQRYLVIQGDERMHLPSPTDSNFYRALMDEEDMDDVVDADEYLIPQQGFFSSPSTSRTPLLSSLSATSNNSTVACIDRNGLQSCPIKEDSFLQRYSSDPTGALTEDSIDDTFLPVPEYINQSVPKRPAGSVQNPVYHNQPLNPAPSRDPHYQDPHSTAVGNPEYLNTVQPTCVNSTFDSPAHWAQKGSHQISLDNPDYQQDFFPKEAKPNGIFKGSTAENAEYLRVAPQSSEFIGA
In short: as §1

[8] = target: T7, EGFR L858R/T790M (Homo sapiens, UniProt P00533, L858R/T790M); assay: Inhibition of EGFR L858R/T790M biochemical enzymatic activity (HTRF); conditions: 1 mM ATP
T7 construct: purchased Carna Bio
In short: as §1

[9] = target: T8, EGFR L858R (Homo sapiens, UniProt P00533, L858R); assay: Inhibition of EGFR L858R biochemical enzymatic activity (HTRF); conditions: 1 mM ATP
T8 construct: purchased Carna Bio
T8 sequence (P00533 25-1210 L858R): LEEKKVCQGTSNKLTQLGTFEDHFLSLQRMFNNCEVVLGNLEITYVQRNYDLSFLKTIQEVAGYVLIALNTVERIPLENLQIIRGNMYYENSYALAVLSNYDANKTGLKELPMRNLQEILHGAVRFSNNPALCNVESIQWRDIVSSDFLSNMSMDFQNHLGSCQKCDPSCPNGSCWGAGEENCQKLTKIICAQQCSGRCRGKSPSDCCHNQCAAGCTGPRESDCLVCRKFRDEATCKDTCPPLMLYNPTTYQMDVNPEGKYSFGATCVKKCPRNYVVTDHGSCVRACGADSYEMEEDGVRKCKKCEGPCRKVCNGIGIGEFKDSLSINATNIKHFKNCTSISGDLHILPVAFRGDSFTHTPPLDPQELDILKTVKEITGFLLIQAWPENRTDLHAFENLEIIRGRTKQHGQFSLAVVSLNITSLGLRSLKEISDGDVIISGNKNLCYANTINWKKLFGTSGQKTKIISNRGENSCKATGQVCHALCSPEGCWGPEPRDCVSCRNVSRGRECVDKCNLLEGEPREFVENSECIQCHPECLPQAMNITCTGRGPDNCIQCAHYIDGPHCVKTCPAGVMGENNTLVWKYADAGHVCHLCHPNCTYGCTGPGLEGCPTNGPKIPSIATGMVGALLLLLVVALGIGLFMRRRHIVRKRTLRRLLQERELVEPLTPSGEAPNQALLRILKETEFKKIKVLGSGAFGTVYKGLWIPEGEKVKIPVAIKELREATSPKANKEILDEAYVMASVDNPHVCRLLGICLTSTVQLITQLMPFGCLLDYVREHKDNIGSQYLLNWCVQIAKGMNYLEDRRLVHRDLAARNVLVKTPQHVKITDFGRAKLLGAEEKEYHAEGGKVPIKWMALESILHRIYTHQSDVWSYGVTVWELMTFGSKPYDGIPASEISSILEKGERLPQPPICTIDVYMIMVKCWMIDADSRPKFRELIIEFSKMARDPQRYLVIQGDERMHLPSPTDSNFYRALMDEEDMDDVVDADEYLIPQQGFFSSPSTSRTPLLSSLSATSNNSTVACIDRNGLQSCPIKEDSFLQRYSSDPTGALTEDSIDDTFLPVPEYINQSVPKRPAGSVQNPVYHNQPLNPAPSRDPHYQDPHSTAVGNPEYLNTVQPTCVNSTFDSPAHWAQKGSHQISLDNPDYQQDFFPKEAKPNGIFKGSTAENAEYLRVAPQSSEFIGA
In short: as §1

[10] = tested on: Ba/F3 cells expressing EGFR mutations; assay: Cell proliferation assay, Ba/F3 cells expressing EGFR mutations (CellTiter-Glo, 72 hours); assay type: cell-based
In short: as §2

[11] = target: T9, EGFR[T790M/C797S/d746-750] (Homo sapiens, UniProt P00533, C797S/DEL746-750/T790M); assay: Inhibition of EGFR[T790M/C797S/d746-750] biochemical enzymatic activity (HTRF)
T9 construct: purchased Carna Bio
T9 sequence (P00533 with tags, fused parts or gaps DEL746-750/T790M/C797S limits assumed): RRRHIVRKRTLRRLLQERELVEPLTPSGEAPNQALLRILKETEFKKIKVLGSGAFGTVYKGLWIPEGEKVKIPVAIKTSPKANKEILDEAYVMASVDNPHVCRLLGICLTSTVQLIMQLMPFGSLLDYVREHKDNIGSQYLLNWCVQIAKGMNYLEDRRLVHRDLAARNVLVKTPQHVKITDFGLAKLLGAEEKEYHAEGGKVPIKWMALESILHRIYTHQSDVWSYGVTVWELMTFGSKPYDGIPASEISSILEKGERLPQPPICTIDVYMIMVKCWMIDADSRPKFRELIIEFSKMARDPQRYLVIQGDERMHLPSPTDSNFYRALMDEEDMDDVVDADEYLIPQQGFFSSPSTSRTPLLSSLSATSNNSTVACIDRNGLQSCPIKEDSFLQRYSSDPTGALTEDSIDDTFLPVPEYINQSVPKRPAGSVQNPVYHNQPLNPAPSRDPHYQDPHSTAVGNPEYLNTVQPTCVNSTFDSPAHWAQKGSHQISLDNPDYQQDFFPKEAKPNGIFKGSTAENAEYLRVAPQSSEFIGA
In short: as §1

[12] = EGFR WT, 1 h, room temperature, read-out: IC50 (nM) @WT
[13] = EGFR Del19-C797S, 1 h, room temperature, read-out: IC50 (nM) @Del19-C797S
[14] = EGFR T790M-C797S-L858R, 1 h, room temperature, read-out: IC50 (nM) @T790M- C797S - L858R
[15] = EGFR Del19-T790M, 1 h, room temperature, read-out: IC50 (nM) @Del19-T790M
[16] = CellTiter-Glo, read-out: PC9 GI50
[17] = EGFR L858-C797S, 1 h, room temperature, read-out: IC50 (nM) @L858-C797S
[18] = EGFR Del19, 1 mM ATP, 1 h, room temperature
[19] = EGFR L858R-T790M, 1 h, room temperature, read-out: IC50 (nM) @L858R-T790M
[20] = 1 h, room temperature, read-out: IC50 (nM) @L858R
[21] = BaF3 cells, EGFR DEL19-C797S, CellTiter-Glo, read-out: DEL19-C797S/BaF3 GI50
[22] = BaF3 cells, EGFR DEL19-T790-C797S, CellTiter-Glo, read-out: DEL19-T790-C797S/BaF3 GI50
[23] = BaF3 cells, EGFR L858R, CellTiter-Glo, read-out: L858R/BaF3 GI50
[24] = BaF3 cells, EGFR L858R-C797S, CellTiter-Glo, read-out: L858R-C797S/BaF3 GI50
[25] = BaF3 cells, EGFR L858R-T790-C797S, CellTiter-Glo, read-out: L858R-T790-C797S/BaF3 GI50
[26] = BaF3 cells, EGFR L858R-T790M, CellTiter-Glo, read-out: L858R-T790M/BaF3 GI50
[27] = EGFR DEL19-T790M, CellTiter-Glo, read-out: DEL19-T790M GI50
[28] = EGFR T790M-C797S-Del19, 1 mM ATP, 1 h, room temperature, read-out: IC50 (nM) @T790M - C797S - Del19
[29] = EGFR wild type, 1 h at room temperature, read-out: IC50 @WT
[30] = EGFR (d746-750 C797S), 1 h at room temperature, read-out: IC50 @Del19-C797S
[31] = EGFR[T790M/C797S/L858R], 1 h at room temperature, read-out: IC50 @T790M- C797S - L858R
[32] = EGFR Exon19Del/T790M, 1 h at room temperature, read-out: IC50 @Del19-T790M
[33] = EGFR (C797S L858R), 1 h at room temperature, read-out: IC50 @L858-C797S
[34] = EGFR Exon19Del, 1 mM ATP, 1 h at room temperature
[35] = EGFR L858R/T790M, 1 h at room temperature, read-out: IC50 @L858R-T790M
[36] = 1 h at room temperature, read-out: IC50 @L858R
[37] = BaF3 cells, EGFR DEL19 - C797S, read-out: GI50 DEL19 - C797S/BaF3
[38] = BaF3 cells, EGFR DEL19 - T790-C797S, read-out: GI50 DEL19 - T790-C797S/BaF3
[39] = BaF3 cells, EGFR L858R - C797S, read-out: GI50 L858R - C797S/BaF3
[40] = BaF3 cells, EGFR L858R - T790-C797S, read-out: GI50 L858R - T790-C797S/BaF3
[41] = BaF3 cells, EGFR L858R - T790M, read-out: GI50 L858R - T790M/BaF3
[42] = BaF3 cells, EGFR L858R, read-out: GI50 L858R/BaF3
[43] = EGFR DEL19 - T790M, read-out: GI50 DEL19 - T790M
[44] = EGFR[T790M/C797S/d746-750], 1 mM ATP, 1 h at room temperature, read-out: IC50 @T790M - C797S - Del19

| SMILES | IC50 [1, 12] | IC50 [2, 13] | IC50 [3, 14] | IC50 [1, 29] | IC50 [2, 30] | IC50 [3, 31] | IC50 [4, 32] | GI50 ([5]; read-out: GI50 PC9) | IC50 [6, 33] | IC50 [7, 34] | IC50 [8, 35] | IC50 [9, 36] | GI50 [10, 37] | GI50 [10, 38] | GI50 [10, 39] | GI50 [10, 40] | GI50 [10, 41] | GI50 [10, 42] | GI50 [10, 43] | IC50 [11, 44] | further results |
| --- | --- | --- | --- | --- | --- | --- | --- | --- | --- | --- | --- | --- | --- | --- | --- | --- | --- | --- | --- | --- | --- |
| CN(C)CCN(C)c1ccc2nc3n(c2c1)C12CCC(CN(CCOc4c(cnn4C)-c4cc(cn(C)c4=O)C(=O)N3)C1)C2 (single isomer, unassigned) [Example A85A] | > 5000 nM | 308 nM | > 5000 nM | – | – | – | – | – | – | – | – | – | – | – | – | – | – | – | – | – | IC50 [4, 15]: > 5000 nM; GI50 [5, 16]: 387 nM; IC50 [6, 17]: 1280 nM; IC50 [7, 18]: 138 nM; IC50 [8, 19]: > 5000 nM; IC50 [9, 20]: 1590 nM; GI50 [10, 21]: 95 nM; GI50 [10, 22]: 119 nM; GI50 [10, 23]: 188 nM; GI50 [10, 24]: 167 nM; GI50 [10, 25]: 303 nM; GI50 [10, 26]: 364 nM; GI50 [10, 27]: 159 nM; IC50 [11, 28]: 3660 nM |
| Cc1cc2cc(n1)-c1cnn(C)c1OCCN1CC3CCC(C3)(C1)n1c(nc3ccc(N4CC[C@H](N(C)C)C4)cc31)NC2=O (single isomer, unassigned) [Example B41A] | – | – | – | > 5000 nM | > 5000 nM | > 5000 nM | 3670 nM | 2300 nM | > 5000 nM | > 5000 nM | > 5000 nM | > 5000 nM | 302 nM | 436 nM | 776 nM | 39 nM | 315 nM | 2790 nM | 348 nM | 1300 nM | – |
| CN(C)C1CN(c2ccc3nc4n(c3c2)C23CCC(CN(CCOc5c(cnn5C)-c5cc(cn(C)c5=O)C(=O)N4)C2)C3)CC1F (single isomer, unassigned) [Example A84B, 15,21-Dimethyl-5-[4-fluoro-3-(N,N-dimethylamino)pyrrolidinyl]-23-oxa-2,9,11,15,20,21,26-heptaazaheptacyclo[24.4.1.1^{1,28}.1^{13,17}.0^{2,10}.0^{3,8}.0^{18,22}]tritriaconta-3,5,7,9,13,17(33),18(22),19-octaene-12,16-dione] | > 5000 nM | 400 nM | > 5000 nM | – | – | – | – | – | – | – | – | – | – | – | – | – | – | – | – | – | IC50 [4, 15]: > 5000 nM; GI50 [5, 16]: 768 nM; IC50 [6, 17]: 1140 nM; IC50 [7, 18]: 451 nM; IC50 [8, 19]: > 5000 nM; IC50 [9, 20]: 1310 nM; GI50 [10, 21]: 157 nM; GI50 [10, 22]: 516 nM; GI50 [10, 23]: 480 nM; GI50 [10, 24]: 302 nM; GI50 [10, 25]: 1040 nM; GI50 [10, 26]: 997 nM; GI50 [10, 27]: 545 nM; IC50 [11, 28]: > 5000 nM |

More lines, main results first:

| IC50 [1, 12] | IC50 [2, 13] | IC50 [3, 14] | IC50 [1, 29] | IC50 [2, 30] | IC50 [3, 31] | IC50 [4, 32] | GI50 ([5]; read-out: GI50 PC9) | IC50 [6, 33] | IC50 [7, 34] | IC50 [8, 35] | IC50 [9, 36] | GI50 [10, 37] | GI50 [10, 38] | GI50 [10, 39] | GI50 [10, 40] | GI50 [10, 41] | GI50 [10, 42] | GI50 [10, 43] | IC50 [11, 44] | SMILES | further results |
| --- | --- | --- | --- | --- | --- | --- | --- | --- | --- | --- | --- | --- | --- | --- | --- | --- | --- | --- | --- | --- | --- |
| – | – | – | > 5000 nM | > 5000 nM | > 5000 nM | 3370 nM | 3020 nM | > 5000 nM | > 5000 nM | > 5000 nM | > 5000 nM | 357 nM | 615 nM | 1080 nM | 124 nM | 383 nM | 2850 nM | 530 nM | 1100 nM | Cc1cc2cc(n1)-c1cnn(C)c1OCCN1CC3CCC(C3)(C1)n1c(nc3ccc(N4CCC5(CCN(C)CC5)C4)cc31)NC2=O (single isomer, unassigned) [Example B51A] | – |
| – | – | – | > 5000 nM | > 5000 nM | > 5000 nM | 1770 nM | 941 nM | > 5000 nM | > 5000 nM | > 5000 nM | > 5000 nM | 208 nM | 428 nM | 829 nM | 147 nM | 324 nM | 2000 nM | 612 nM | 792 nM | Cc1cc2cc(n1)-c1cnn(C)c1OCCN1CC3CCC(C3)(C1)n1c(nc3ccc(N4CCN(C(C)C)CC4)cc31)NC2=O (single isomer, unassigned) [Example B57A] | – |
